The results in this text go back to BindingDB's records for doi:10.1021/jm0504961 (Merck Frosst Centre For Therapeutic Research, 2005).

In assay [1] the target is Cathepsin S (Mouse, UniProt O70370). The assay is described as follows: Enzyme Inhibition Assay. As for the experimental part:
Prior to the addition of substrate, different concentrations of the inhibitor ranging from 100 uM to 0.2 nM were preincubated for 15 min with enzyme to allow the establishment of the enzyme-inhibitor complex. […] The percent inhibition of the reaction was calculated from a control reaction containing only vehicle. IC50 curves were generated by fitting percent inhibition values to a four parameter logistic model (SOFTMAX PRO, Molecular Devices).

Assay [2] deals with Cathepsin S (Homo sapiens, UniProt P25774). The assay is described as follows: Enzyme Inhibition Assay and Whole Cell Enzyme Occupancy Assay. The note with it: pH 6.5; 22 °C. As for the experimental part:
(§1) Prior to the addition of substrate, different concentrations of the inhibitor ranging from 100 uM to 0.2 nM were preincubated for 15 min with enzyme to allow the establishment of the enzyme-inhibitor complex. The proteolytic cleavage of N-acyl aminocoumarins by cathepsins was conducted in 96-well plate format and the plate read using a Spectramax (Molecular Devices) plate reader. The excitation wavelength was 355 nm and the emission wavelength was 460 nm for peptidyl-AMC substrates. The percent inhibition of the reaction was calculated from a control reaction containing only vehicle. IC50 curves were generated by fitting percent inhibition values to a four parameter logistic model (SOFTMAX PRO, Molecular Devices). EC50/IC50 values were obtained from whole cell enzyme occupancy assays for human cathepsins B (in HepG2 cells), L (in HepG2 cells), and S (in Ramos cells).

A further assay has as its target Procathepsin L (Homo sapiens, UniProt P07711). The description is as above. The note with it: pH 5.5; 22 °C. As for the experimental part:
as §1

The target of a further assay is T1, Cathepsin K (Oryctolagus cuniculus, UniProt P43236).
T1 sequence (P43236 whole entry): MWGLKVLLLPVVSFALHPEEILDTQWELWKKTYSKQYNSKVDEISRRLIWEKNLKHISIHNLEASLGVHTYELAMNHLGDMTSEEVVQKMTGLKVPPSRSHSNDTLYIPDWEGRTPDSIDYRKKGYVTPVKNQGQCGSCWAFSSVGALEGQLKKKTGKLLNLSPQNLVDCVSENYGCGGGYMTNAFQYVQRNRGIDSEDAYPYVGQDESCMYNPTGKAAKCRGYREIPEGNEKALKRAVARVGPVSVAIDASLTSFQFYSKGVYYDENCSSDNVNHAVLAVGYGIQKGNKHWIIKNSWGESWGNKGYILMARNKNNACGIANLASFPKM
The assay is described as follows: Enzyme Inhibition Assay and Bone Resorption Assay. The note with it: pH 5.5; 22 °C. As for the experimental part:
Prior to the addition of substrate, different concentrations of the inhibitor ranging from 100 uM to 0.2 nM were preincubated for 15 min with enzyme to allow the establishment of the enzyme-inhibitor complex. […] The percent inhibition of the reaction was calculated from a control reaction containing only vehicle. IC50 curves were generated by fitting percent inhibition values to a four parameter logistic model (SOFTMAX PRO, Molecular Devices). EC50/IC50 values were obtained from functional rabbit bone resorption assay.

Chain of Procathepsin L (P07711 whole entry): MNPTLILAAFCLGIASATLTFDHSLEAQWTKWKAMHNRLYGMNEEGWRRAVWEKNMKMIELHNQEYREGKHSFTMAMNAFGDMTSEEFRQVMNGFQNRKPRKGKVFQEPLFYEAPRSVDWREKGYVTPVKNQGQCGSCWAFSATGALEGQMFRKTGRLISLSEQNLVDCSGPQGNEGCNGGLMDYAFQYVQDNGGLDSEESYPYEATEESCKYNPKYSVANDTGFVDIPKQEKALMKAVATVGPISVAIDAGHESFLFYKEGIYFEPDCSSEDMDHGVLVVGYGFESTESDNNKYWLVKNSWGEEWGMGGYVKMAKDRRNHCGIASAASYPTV
Chain of Cathepsin S (Homo sapiens, UniProt P25774) (P25774 whole entry): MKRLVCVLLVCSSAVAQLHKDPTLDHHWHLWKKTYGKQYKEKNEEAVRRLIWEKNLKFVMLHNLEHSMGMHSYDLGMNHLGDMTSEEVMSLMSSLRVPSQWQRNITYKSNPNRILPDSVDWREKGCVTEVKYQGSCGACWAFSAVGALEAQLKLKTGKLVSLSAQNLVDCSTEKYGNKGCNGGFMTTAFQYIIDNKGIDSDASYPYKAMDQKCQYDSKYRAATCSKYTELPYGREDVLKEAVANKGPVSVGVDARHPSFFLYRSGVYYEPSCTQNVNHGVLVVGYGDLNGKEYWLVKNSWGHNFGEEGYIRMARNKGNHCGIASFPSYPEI
Chain of Cathepsin S (Mouse, UniProt O70370) (O70370 whole entry): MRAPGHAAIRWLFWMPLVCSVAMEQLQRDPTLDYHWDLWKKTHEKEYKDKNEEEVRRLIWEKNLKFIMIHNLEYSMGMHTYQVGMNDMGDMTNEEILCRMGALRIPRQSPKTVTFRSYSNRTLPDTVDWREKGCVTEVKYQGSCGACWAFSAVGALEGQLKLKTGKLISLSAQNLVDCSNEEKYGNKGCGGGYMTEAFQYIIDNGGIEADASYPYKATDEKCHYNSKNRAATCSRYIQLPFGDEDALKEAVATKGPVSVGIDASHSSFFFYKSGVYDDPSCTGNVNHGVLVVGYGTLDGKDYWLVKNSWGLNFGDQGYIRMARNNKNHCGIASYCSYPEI

By EC50 is commonly meant the midpoint of the concentration-response curve. A high value points to a need for much substance. On to `CN1CCN(c2nc(-c3ccc(C(=O)NC4(C(=O)NCC(F)(F)F)CCCCC4)cc3)cs2)CC1` [4-[2-(4-methylpiperazin-1-yl)-1,3-thiazol-4-yl]-N-{1-[(2,2,2-trifluoroethyl)carbamoyl]cyclohexyl}benzamide], for which the EC50 on Cathepsin S [1] was > 10000 nM.
Regarding `CC(C)C[C@@H](C(=O)NCC#N)c1cccc(-c2ccc(N3CCNCC3)cc2)c1` [(2R)-N-(cyanomethyl)-4-methyl-2-{3-[4-(piperazin-1-yl)phenyl]phenyl}pentanamide], the EC50 was determined as 740 nM on Cathepsin S [1], 1340 nM on Cathepsin S [2], 320 nM on Procathepsin L and 149 nM at Cathepsin K.
In the case of `N#CCNC(=O)[C@H](CC1CCCCC1)NC(=O)c1ccccc1` [(2S)-N-(cyanomethyl)-3-cyclohexyl-2-(phenylformamido)propanamide], the EC50 on Cathepsin S [1] stood at 40 nM; on Cathepsin S [2] it was 10 nM; at Procathepsin L, 230 nM.
Regarding `CCCN1CCN(c2ccc(C(=O)NC3(C(=O)NCC#N)CCCCC3)cc2)CC1` [N-[1-(cyanomethylcarbamoyl)cyclohexyl]-4-(4-propylpiperazin-1-yl)], the EC50 at Cathepsin S [1] amounted to 480 nM; at Cathepsin S [2], 2900 nM; at Procathepsin L, 48 nM.
In the case of `N#CCNC(=O)C1(NC(=O)c2ccc(N3CCOCC3)cc2)CCCCC1` [N-{1-[(cyanomethyl)carbamoyl]cyclohexyl}-4-(morpholin-4-yl)benzamide], the EC50 on Cathepsin S [1] is 8500 nM; on Cathepsin S [2], 4800 nM; on Procathepsin L, > 10000 nM; on Cathepsin K, 580 nM.
With `CN1CCN(c2nc(-c3ccc(C(=O)NC4(C(=O)NCC#N)CCCCC4)cc3)cs2)CC1` [N-{1-[(cyanomethyl)carbamoyl]cyclohexyl}-4-[2-(4-methylpiperazin-1-yl)-1,3-thiazol-4-yl]benzamide], the EC50 at Cathepsin S [1] was found to be 318 nM; at Cathepsin S [2] it was 790 nM; on Procathepsin L it was 340 nM; at Cathepsin K, 5 nM.
For `N#CCNC(=O)C1(NC(=O)c2ccc(-c3csc(N4CCOCC4)n3)cc2)CCCCC1` [N-{1-[(cyanomethyl)carbamoyl]cyclohexyl}-4-[2-(morpholin-4-yl)-1,3-thiazol-4-yl]benzamide], the EC50 at Cathepsin S [1] was 6700 nM; on Cathepsin S [2], > 10000 nM; on Procathepsin L, > 10000 nM; on Cathepsin K, 41 nM.
